Measurements taken from patent US7541398B2, “Method for transformation of conventional and commercially important polymers into durable and rechargeable antimicrobial polymeric materials” (priority 2005, dated 2009).

Test: Durability of SHC powders: active chlorine content titrated after storage under ambient conditions
Type: physicochemical
Details: for active chlorine content: as synthesized, before storage; for Active chlorine content, 2 month / Active chlorine content, 4 month / Active chlorine content, 6 month: storage at about 25° C.±3, humidity about 60±10%
Procedure: Durability and Rechargeability of the SHCs. Durability: After storage under ambient conditions (e.g., temperature about 25° C.±3, humidity about 60±10%) for a certain period of time, the active chlorine contents in the SHC samples were titrated and the results were listed in Table 3.

Row | Compound | active chlorine content | Active chlorine content, 2 month | Active chlorine content, 4 month | Active chlorine content, 6 month
1 | CC1(C)CC(OC(=O)CCCCCCCCC(=O)OC2CC(C)(C)N(Cl)C(C)(C)C2)CC(C)(C)N1Cl [SHC-1, Bis(N-chloro-2,2,6,6-tetramethyl-4-piperidyl)sebacate] | 12.5% | 12.6 wt. % | 12.8 wt. % | 12.4 wt. %
2 | N-chloro-[(2,2,6,6-tetramethyl-4-piperidyl) alkyl formate] [SHC-3] | about 7.86% | 8.10 wt. % | 7.70 wt. % | 7.30 wt. %
